We go through two compounds from paper PMC9030691, “Toxicokinetics of β-Amanitin in Mice and In Vitro Drug–Drug Interaction Potential” (Pharmaceutics, 2022).

The conditions of series [1]: mice, oral administration at doses of 2, 5, or 10 mg/kg; cited from earlier work. The protocol:
Amanita phalloides poisoning can cause acute hepatitis, leading to the rapid development of liver insufficiency and ultimately coma and death. Nephrotoxicity is reported less frequently. Yilmaz et al. reported that an oral intake of approximately 50 g of fresh Amanita phalloides, representing a dose of 0.32 mg/kg of amatoxins, can be lethal. A few reports are available that describe the toxicokinetics of α- and β-amanitin after the oral administration of toadstool extract to beagle dogs and rats. In addition, the toxicokinetics of α-amanitin were investi ...

The test system of another series is HEK293 control cells. The series can be described thus: Uptake of amanitins into HEK293 control cells. The format is in vitro ADME. As to conditions: 50 μM amanitin, 5 min, 37 °C, HBSS, LC-HRMS, n = 3. The protocol:
HEK293 cells overexpressing OCT2, MATE2-K, OAT1, OAT3, OATP1B1, and OATP1B3 transporters and HEK293-control cells were maintained in a humidified atmosphere of 5% CO2 at 37 °C in DMEM supplemented with 10% FBS and 5 mM non-essential amino acids. In the case of HEK293-OATP1B1, -OATP1B3, and MATE2-K cells, 2 mM sodium butyrate was added to the culture medium to enhance transport activity. Cells were seeded at 2 × 10^5 cells/well in poly-D-lysine-coated 24-well plates. After 24 h, the growth medium was discarded, and attached cells were washed with HBSS and preincubated for 20 min in HBSS at 37 °C. Stock solutions of α- and β-amanitin and representative inhibitors of transporters were diluted in HBSS to make the final concentration: cimetidine 1 mM (for OCT2), cimetidine 100 μM (for MATE2-K), probenecid 100 μM (for OAT1 and OAT3), and rifampin 100 μM (for OATP1B1 and OATP1B3). Uptake of 50 μM α- and β-amanitin was measured in the absence and presence of representative inhibitors for 5 min at 37 °C. Plates were placed immediately on ice, and cells were then washed twice with 1 mL of ice-cold HBSS. Residual HBSS was removed thoroughly from the plates. Subsequently, 150 μL of 80% methanol containing IS was added to each sample well, and the cell plates were shaken gently for 20 min at 4 °C. The remaining steps were the same as described for plasma sample preparation.

Another series has as its system mice. Description: Death or toxicity observed during the toxicokinetic study. The format is in vivo. Particulars: male ICR mice. The protocol: β-amanitin was dissolved in water and administered by iv bolus injection into the tail vein of mice at doses of 0.2 (n = 8), 0.4 (n = 6), and 0.8 (n = 7) mg/kg. Blood samples (approximately 15 μL) were collected from the retro-orbital plexus under light anesthesia with isoflurane at 0.033, 0.083, 0.25, 0.5, 0.75, 1, 1.5, 2, 3, 4, 6, and 8 h after drug administration.
β-amanitin was dissolved in water and administered to mice by gavage at doses of 2 (n = 7), 5 (n = 9), and 10 (n = 7) mg/kg. Blood samples (approximately 15 μL) were collected from the retro-orbital plexus under light anesthesia with isoflurane at 0.033, 0.083, 0.166, 0.25, 0.5, 0.75, 1, 1.5, 2, 4, 6, and 8 h after drug administration. Plasma samples (5 μL each) were harvested by centrifugation at 13,000× g for 3 min at 4 °C and stored at −80 °C until analysis.

In a further series the target is T1, OAT3 (Homo sapiens, UniProt Q8TCC7).
T1 sequence (Q8TCC7 1-542): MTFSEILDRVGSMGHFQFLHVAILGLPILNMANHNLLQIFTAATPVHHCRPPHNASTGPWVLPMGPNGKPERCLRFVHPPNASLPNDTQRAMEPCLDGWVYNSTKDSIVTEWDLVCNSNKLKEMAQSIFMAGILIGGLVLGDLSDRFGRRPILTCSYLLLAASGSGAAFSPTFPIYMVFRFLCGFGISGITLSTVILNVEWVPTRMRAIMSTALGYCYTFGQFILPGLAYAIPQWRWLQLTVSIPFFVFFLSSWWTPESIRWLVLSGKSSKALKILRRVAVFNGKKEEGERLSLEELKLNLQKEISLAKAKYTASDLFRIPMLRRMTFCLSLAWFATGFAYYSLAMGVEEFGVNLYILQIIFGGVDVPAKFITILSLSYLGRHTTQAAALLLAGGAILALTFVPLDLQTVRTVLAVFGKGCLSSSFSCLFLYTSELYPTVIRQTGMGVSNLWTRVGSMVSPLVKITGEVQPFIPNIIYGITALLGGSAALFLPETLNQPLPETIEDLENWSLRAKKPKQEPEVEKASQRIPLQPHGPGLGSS
Description: OAT3 transport inhibition in HEK293-OAT3 cells. The format is in vitro ADME. Also noted: host or cells: HEK293 (TransportoCells). Particulars: 0.1 μM probe substrate, HBSS pH 7.4, β-amanitin 0.01–250 μM (methods), n = 3, read-out: IC50, OAT3-mediated [3H]estrone-3-sulfate uptake. The protocol:
β-amanitin inhibition (IC50 values) of OCT1, OCT2, MATE2-K, OAT1, OAT3, Na^+/taurocholate co-transporting polypeptide (NTCP), OATP1B1, OATP1B3, P-glycoprotein (P-gp), and breast-cancer-resistant protein (BCRP) transport activities were assessed in HEK293 cells overexpressing individual transporters (TransportoCells™, Corning), LLC-PK1-P-gp (Corning), or LLC-PK1-BCRP (obtained from Dr. A.H. Schinkel, Netherlands Cancer Institute; Amsterdam, The Netherlands), as previously reported. Each incubation mixture was prepared to a final volume of 100 μL HBSS (pH 7.4) containing 0.1 μM probe substrates ([^3H]methyl-4-phenylpyridinium for OCT1 and OCT2, [^14C]metformin for MATE2-K, [^3H]p-aminohippuric acid for OAT1, [^3H]estrone-3-sulfate for OAT3, OATP1B1 and BCRP, [^3H]taurocholate for NTCP, [^3H]17-β-D-estradiol-glucuronide for OATP1B3, [^3H]digoxin for P-gp) and various concentrations of β-amanitin (0.01–250 μM), as previously described.

“Also recorded” adds a separate entry of the source.

As to α-amanitin [reference compound], in series [1], the Absolute bioavailability is 3.5–4.8%.

For orientation: IC50 means the concentration at which inhibition is half-maximal. Regarding `CC[C@H](C)[C@@H]1NC(=O)CNC(=O)[C@@H]2Cc3c([nH]c4cc(O)ccc34)[S@+]([O-])C[C@H](NC(=O)CNC1=O)C(=O)N[C@@H](CC(=O)O)C(=O)N1C[C@H](O)C[C@H]1C(=O)N[C@@H]([C@@H](C)[C@@H](O)CO)C(=O)N2` [β-amanitin], in the series with HEK293 control cells, the “Uptake into HEK293 control cells, β- versus α-amanitin” value is “greater than α-amanitin”. Further, the “Death or serious toxicity after intravenous bolus administration” value in the series with mice (iv bolus via tail vein 0.2, 0.4 and 0.8 mg/kg) is reported as “did not cause death or serious toxicity; also recorded: did not cause toxicity”. The “Death or serious toxicity after oral administration” value in the series on mice (oral gavage 2, 5 and 10 mg/kg) is on record as “did not cause death or serious toxicity; also recorded: did not cause toxicity”. On OAT3, the half-maximal inhibitory concentration (IC50) came out at 37.4 µM.
